ChEMBL document CHEMBL6087398, “Natural phenol carbamates: Selective BuChE/FAAH dual inhibitors show neuroprotection in an Alzheimer's disease mouse model” (Eur J Med Chem, 2025)
Active and inactive are the calls of the source. The rule behind the calls is not given here.

Experiments:
Cholinesterase [1] = target: Cholinesterase (Equus caballus, UniProt P81908); assay: Inhibition of equine BuChE using butyrylthiocholine iodide as substrate preincubated with enzyme for 20 mins followed by substrate addition and measured after 20 mins by Ellman's method
[2] = target: Acetylcholinesterase (Electrophorus electricus) (UniProt O42275); assay: Inhibition of electric eel AChE using acetylthiocholine iodide as substrate preincubated with enzyme for 20 mins followed by substrate addition and measured after 20 mins by Ellman's method; set-up: concentration or dose not given beside the values; conditions: time 40.0 min
[3] = target: T1, Fatty-acid amide hydrolase 1 (Homo sapiens, UniProt O00519); assay: Inhibition of human FAAH using arachidonoyl amide as substrate incubated for 30 mins by fluorescence-based cayman assay
T1 sequence (O00519 whole entry): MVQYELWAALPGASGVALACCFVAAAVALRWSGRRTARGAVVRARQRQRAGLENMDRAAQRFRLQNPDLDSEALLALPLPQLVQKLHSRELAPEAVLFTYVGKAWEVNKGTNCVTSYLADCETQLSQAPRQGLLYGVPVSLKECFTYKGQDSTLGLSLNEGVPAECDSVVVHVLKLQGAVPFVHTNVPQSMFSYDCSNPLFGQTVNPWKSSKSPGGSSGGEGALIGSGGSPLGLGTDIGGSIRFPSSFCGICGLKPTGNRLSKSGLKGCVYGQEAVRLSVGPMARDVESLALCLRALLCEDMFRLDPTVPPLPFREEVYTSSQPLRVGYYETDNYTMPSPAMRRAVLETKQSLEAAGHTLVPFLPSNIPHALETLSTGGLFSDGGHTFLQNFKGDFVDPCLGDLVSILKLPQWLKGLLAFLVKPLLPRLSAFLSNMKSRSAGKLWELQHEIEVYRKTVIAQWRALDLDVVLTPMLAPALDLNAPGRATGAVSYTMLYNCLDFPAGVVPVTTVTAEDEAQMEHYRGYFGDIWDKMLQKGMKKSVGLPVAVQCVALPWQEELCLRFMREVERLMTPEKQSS

[4] = target: Acetylcholinesterase (Homo sapiens) (UniProt P22303); assay: Inhibition of recombinant human AChE using acetylthiocholine iodide as substrate incubated for 5 mins relative to control
[5] = target: Acetylcholinesterase (Electrophorus electricus) (UniProt O42275); assay: Inhibition of electric eel AChE using acetylthiocholine iodide as substrate preincubated with enzyme for 20 mins followed by substrate addition and measured after 20 mins by Ellman's method relative to control; set-up: concentration or dose not given beside the values; conditions: time 40.0 min
Cholinesterase [6] = target: T2, Cholinesterase (Homo sapiens, UniProt P06276); assay: Binding affinity to human BuChE (unknown origin) assessed as equilibrium dissociation constant at 0.025 to 100 uM incubated for 60 mins
PC-12 [7] = assay: Neuroprotective activity against H2O2 induced rat PC12 cells assessed as increase in cell viability at 50 uM measured after 24 hrs by MTT assay relative to control; format: functional
L02 [8] = assay: Cytotoxicity against human L02 cells assessed as reduction in cell viability at 25 uM incubated for 24 hrs by MTT assay; format: toxicity, cell-based; conditions: l02, 24 h
L02 [9] = assay: Cytotoxicity against human L02 cells assessed as reduction in cell viability at 12.5 uM incubated for 24 hrs by MTT assay; format: toxicity, cell-based; conditions: l02, 24 h
Cholinesterase [10] = target: T2, Cholinesterase; assay: Inhibition of human BuChE using butyrylthiocholine iodide as substrate incubated for 5 mins
Cholinesterase [11] = target: T2, Cholinesterase; assay: Binding affinity to human BuChE (unknown origin) assessed as overall carbamolyation rate at 0.025 to 100 uM incubated for 60 mins
L02 [12] = assay: Cytotoxicity against human L02 cells assessed as reduction in cell viability at 50 uM incubated for 24 hrs by MTT assay; format: toxicity, cell-based; conditions: l02, 24 h
in vitro = conditions: PAMPA, pH 7.4
Description: Permeability of the compound in PBS at pH 7.4 incubated for 18 hrs by PAMPA-BBB assay

PC-12 [13] = assay: Neuroprotective activity against H2O2 induced rat PC12 cells assessed as cell viability measured after 24 hrs by MTT assay; format: functional, cell-based; conditions: dose 6.25-50 µM
Cholinesterase [14] = target: T2, Cholinesterase; assay: Binding affinity to human BuChE (unknown origin) assessed as decarbamolyation rate at 0.025 to 100 uM incubated for 60 mins; conditions: dose 0.025-100 µM
Cholinesterase [15] = target: T2, Cholinesterase; assay: Binding affinity to human BuChE (unknown origin) assessed as carbamolyation rate at 0.025 to 100 uM incubated for 60 mins; conditions: dose 0.025-100 µM

Acetylcholinesterase (Homo sapiens), sequence (P22303 whole entry): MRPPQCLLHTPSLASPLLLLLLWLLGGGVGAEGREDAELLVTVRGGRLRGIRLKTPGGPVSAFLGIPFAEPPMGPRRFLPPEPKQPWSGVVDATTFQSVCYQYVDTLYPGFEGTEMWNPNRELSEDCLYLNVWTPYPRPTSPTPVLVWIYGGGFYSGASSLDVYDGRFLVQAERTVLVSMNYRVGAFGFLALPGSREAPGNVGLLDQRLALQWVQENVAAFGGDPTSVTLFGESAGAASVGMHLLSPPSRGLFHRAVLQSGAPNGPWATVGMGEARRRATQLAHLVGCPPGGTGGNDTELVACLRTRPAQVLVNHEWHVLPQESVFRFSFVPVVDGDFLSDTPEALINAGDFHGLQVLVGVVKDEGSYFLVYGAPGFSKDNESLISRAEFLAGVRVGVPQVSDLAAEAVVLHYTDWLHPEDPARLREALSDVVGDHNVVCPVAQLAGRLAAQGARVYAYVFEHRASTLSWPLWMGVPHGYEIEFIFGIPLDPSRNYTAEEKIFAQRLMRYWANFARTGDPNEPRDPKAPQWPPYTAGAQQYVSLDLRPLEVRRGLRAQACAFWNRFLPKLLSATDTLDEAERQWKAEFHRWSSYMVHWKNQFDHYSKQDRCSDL
Acetylcholinesterase (Electrophorus electricus), sequence (O42275 24-633 limits assumed): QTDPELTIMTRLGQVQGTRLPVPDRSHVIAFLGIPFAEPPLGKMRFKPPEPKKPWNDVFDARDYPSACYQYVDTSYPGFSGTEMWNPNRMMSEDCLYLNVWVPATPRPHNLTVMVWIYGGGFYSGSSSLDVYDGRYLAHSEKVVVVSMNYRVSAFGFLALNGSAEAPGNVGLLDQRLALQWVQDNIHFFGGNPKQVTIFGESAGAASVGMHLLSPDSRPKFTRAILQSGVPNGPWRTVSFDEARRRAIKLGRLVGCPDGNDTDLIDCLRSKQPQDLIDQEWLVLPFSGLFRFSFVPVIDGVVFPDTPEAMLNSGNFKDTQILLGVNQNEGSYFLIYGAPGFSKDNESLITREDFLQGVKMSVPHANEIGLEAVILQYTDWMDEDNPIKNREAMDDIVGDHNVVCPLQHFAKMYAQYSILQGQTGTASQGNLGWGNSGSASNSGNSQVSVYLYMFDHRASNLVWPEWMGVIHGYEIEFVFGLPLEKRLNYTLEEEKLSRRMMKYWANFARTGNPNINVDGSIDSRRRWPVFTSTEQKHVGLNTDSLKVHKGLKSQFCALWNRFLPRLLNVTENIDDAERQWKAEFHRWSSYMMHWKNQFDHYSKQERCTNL
T2 sequence (P06276 whole entry): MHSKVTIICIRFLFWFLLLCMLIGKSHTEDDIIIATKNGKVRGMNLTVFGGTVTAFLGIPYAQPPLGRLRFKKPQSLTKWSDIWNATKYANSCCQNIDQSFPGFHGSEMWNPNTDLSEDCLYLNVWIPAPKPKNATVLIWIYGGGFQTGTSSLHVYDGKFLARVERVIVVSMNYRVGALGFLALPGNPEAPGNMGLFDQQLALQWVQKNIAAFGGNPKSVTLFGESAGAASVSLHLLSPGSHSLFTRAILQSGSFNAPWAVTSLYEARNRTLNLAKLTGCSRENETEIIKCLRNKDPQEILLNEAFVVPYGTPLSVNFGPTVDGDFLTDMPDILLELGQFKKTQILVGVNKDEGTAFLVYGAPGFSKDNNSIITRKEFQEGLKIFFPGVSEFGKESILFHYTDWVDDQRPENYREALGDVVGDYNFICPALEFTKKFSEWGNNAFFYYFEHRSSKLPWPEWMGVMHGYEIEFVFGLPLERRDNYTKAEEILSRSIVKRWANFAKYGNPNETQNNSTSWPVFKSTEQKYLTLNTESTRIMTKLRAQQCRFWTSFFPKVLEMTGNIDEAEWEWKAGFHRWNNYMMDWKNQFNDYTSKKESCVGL
Cholinesterase (Equus caballus, UniProt P81908), sequence (P81908 whole entry): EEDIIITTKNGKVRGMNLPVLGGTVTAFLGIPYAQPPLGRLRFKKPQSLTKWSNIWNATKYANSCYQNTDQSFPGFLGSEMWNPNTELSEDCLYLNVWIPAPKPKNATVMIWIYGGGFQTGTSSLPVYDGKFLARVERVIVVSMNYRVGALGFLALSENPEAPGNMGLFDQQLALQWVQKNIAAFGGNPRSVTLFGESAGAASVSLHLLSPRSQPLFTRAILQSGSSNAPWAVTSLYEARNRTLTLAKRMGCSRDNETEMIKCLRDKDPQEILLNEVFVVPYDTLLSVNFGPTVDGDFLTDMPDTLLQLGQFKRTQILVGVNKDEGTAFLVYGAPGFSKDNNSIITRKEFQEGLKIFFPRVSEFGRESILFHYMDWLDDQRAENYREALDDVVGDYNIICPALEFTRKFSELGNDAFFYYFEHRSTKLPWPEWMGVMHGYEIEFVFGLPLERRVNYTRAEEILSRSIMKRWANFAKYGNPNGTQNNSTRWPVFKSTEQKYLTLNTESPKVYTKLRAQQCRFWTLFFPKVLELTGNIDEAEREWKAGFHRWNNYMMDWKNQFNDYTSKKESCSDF

Compound: Cc1ccc(C(C)C)cc1OC(=O)N(C)Cc1cccc(Cl)c1
- IC50 (Cholinesterase [1]): 1.13 µM
- inhibition [2]: 36%

Compound: CCN(C)C(=O)Oc1cc(OC)ccc1C(C)=O
- IC50 (Cholinesterase [1]): 3.68 µM
- inhibition [2]: 1.7%

Compound: COc1ccc(C(C)=O)c(OC(=O)N(C)Cc2ccccc2)c1
- IC50 (Cholinesterase [1]): 0.19 µM
- inhibition [2]: 6.6%

Compound: COc1ccc(C(C)=O)c(OC(=O)N2CCc3cc(OC)c(OC)cc3C2)c1
- IC50 (Cholinesterase [1]): 3.52 µM
- inhibition [2]: inactive

Compound: O=C(Oc1ccc([N+](=O)[O-])cc1)N1CCN(Cc2cccc(Oc3ccccc3)c2)CC1
- IC50 [3]: 0.011 µM

Compound: COc1ccc(C(C)=O)c(OC(=O)N(C)Cc2ccccc2F)c1
- IC50 (Cholinesterase [1]): 0.94 µM
- inhibition [2]: inactive

Compound: CCN(C)C(=O)Oc1cccc([C@H](C)N(C)C)c1 [RIVASTIGMINE]
- inhibition [4]: 4.65%
- IC50 [3]: 14 µM

Compound: Cc1ccc(C(C)C)cc1OC(=O)N1CCCCC1
- IC50 (Cholinesterase [1]): 0.03 µM

Compound: Cc1ccc(C(C)C)cc1OC(=O)N(C)Cc1ccc(Br)cc1
- IC50 (Cholinesterase [1]): 1.96 µM
- inhibition [2]: 32%

Compound: COc1ccc(C(C)=O)c(OC(=O)N2CCCC2)c1
- IC50 (Cholinesterase [1]): 1.93 µM
- inhibition [2]: 21%

Compound: C=CCc1ccc(OC(=O)N2CCCC2)c(OC)c1
- IC50 (Cholinesterase [1]): 2 µM
- inhibition [2]: inactive

Compound: C=CCc1ccc(OC(=O)N(C)C)c(OC)c1
- inhibition [5]: 69%
- inhibition [2]: inactive

Compound: CCN(C)C(=O)Oc1cc(C(C)C)ccc1C
- IC50 (Cholinesterase [1]): 0.78 µM
- inhibition [2]: inactive

Compound: COc1ccc(C(C)=O)c(OC(=O)N2CCCCC2)c1
- inhibition [4]: inactive
- IC50 (Cholinesterase [1]): 0.006 µM
- Kd (Cholinesterase [6]): 0.3 µM
- Activity (PC-12 [7]): 42%
- Activity (L02 [8]): 81.6%
- Activity (L02 [9]): Non-toxic
- IC50 (Cholinesterase [10]): 0.113 µM
- Ki (Cholinesterase [11]): 0.31 10^-3/uM/min
- Activity (L02 [12]): 81.4%
- inhibition [2]: 6.9%
- Papp at 18 h (in vitro): 17.5 ×10⁻⁶ cm/s
- Activity (PC-12 [13]): Dose-dependent-effect
- IC50 [3]: 8.02 µM
- K (Cholinesterase [14]): 0.024 min⁻¹
- K (Cholinesterase [15]): 0.41 min⁻¹

Compound: COc1ccc(C(C)=O)c(OC(=O)N(C)C)c1
- IC50 (Cholinesterase [1]): 1.64 µM
- inhibition [2]: 8.3%

Compound: COc1ccc(C(C)=O)c(OC(=O)Nc2ccc(Cl)cc2)c1
- IC50 (Cholinesterase [1]): 1.27 µM
- inhibition [2]: 4.6%

Compound: CCN(Cc1ccc(Cl)cc1)C(=O)Oc1cc(OC)ccc1C(C)=O
- IC50 (Cholinesterase [1]): 0.42 µM
- inhibition [2]: inactive

Compound: Cc1ccc(C(C)C)cc1OC(=O)N(C)C
- IC50 (Cholinesterase [1]): 0.59 µM
- inhibition [2]: 62%

Compound: CNC(=O)Oc1cc(C(C)C)ccc1C
- IC50 (Cholinesterase [1]): 2.96 µM
- inhibition [2]: 56%

Compound: Cc1ccc(C(C)C)cc1OC(=O)N(C)Cc1cccc(Br)c1
- IC50 (Cholinesterase [1]): 3.81 µM
- inhibition [2]: 37%

Compound: C=CCc1ccc(OC(=O)N(C)Cc2ccccc2)c(OC)c1
- inhibition [5]: inactive
- inhibition [2]: 25%

Compound: COc1ccc(C(C)=O)c(OC(=O)N2CCSC2)c1
- IC50 (Cholinesterase [1]): 0.64 µM
- inhibition [2]: 44%

Compound: CNC(=O)Oc1cc(OC)ccc1C(C)=O
- IC50 (Cholinesterase [1]): 2.54 µM
- inhibition [2]: 23%

Compound: COc1cc2c(cc1OC)C(=O)C(CC1CCN(Cc3ccccc3)CC1)C2 (centres undefined) [DONEPEZIL]
- Activity (PC-12 [7]): 43%
- Activity (L02 [9]): Non-toxic
- Activity (L02 [12]): 83.4%

Compound: COc1ccc(C(C)=O)c(OC(=O)N2CCC(Cc3ccccc3)CC2)c1
- IC50 (Cholinesterase [1]): 0.31 µM
- inhibition [2]: 43%

Compound: COc1ccc(C(C)=O)c(OC(=O)N(C)Cc2ccc(Cl)cc2)c1
- inhibition [4]: inactive
- IC50 (Cholinesterase [1]): 0.057 µM
- IC50 (Cholinesterase [10]): 0.089 µM
- inhibition [2]: 5.8%
- IC50 [3]: 16.6 µM

Compound: COc1ccc(C(C)=O)c(OC(=O)N2CCc3ccccc3C2)c1
- IC50 (Cholinesterase [1]): 11.5 µM
- inhibition [2]: 27%

Compound: C=CCc1ccc(OC(=O)N(C)Cc2cccc(Br)c2)c(OC)c1
- inhibition [5]: 67%
- inhibition [2]: 17%

Compound: C=CCc1ccc(OC(=O)NC)c(OC)c1
- inhibition [5]: 53%
- inhibition [2]: 42%

Compound: COc1ccc(C(C)=O)c(OC(=O)N(C)Cc2cccc(Br)c2)c1
- IC50 (Cholinesterase [1]): 3.41 µM
- inhibition [2]: inactive

Compound: C=CCc1ccc(OC(=O)N2CCCCC2)c(OC)c1
- IC50 (Cholinesterase [1]): 0.31 µM
- inhibition [2]: 42%

Compound: C=CCc1ccc(OC(=O)N(C)Cc2ccc(Br)cc2)c(OC)c1
- inhibition [5]: 57%
- inhibition [2]: inactive

Compound: COc1ccc(C(C)=O)c(OC(=O)N(C)Cc2cccc(F)c2)c1
- IC50 (Cholinesterase [1]): 0.4 µM
- inhibition [2]: 20%

Compound: COc1ccc(C(C)=O)c(OC(=O)N2CCC(C)CC2)c1
- inhibition [4]: 23%
- IC50 (Cholinesterase [1]): 0.08 µM
- IC50 (Cholinesterase [10]): 1.93 µM
- inhibition [2]: 33%
- IC50 [3]: 28.4 µM

Compound: Cc1ccc(C(C)C)cc1OC(=O)N1CCCC1
- IC50 (Cholinesterase [1]): 0.68 µM
- inhibition [2]: inactive

Compound: C=CCc1ccc(OC(=O)N(C)CC)c(OC)c1
- inhibition [5]: 74%
- inhibition [2]: 69%

Compound: COc1ccc(C(C)=O)c(OC(=O)N(C)Cc2ccc(Br)cc2)c1
- IC50 (Cholinesterase [1]): 2.81 µM
- inhibition [2]: 34%

Compound: C=CCc1ccc(OC(=O)N2CCc3ccccc3C2)c(OC)c1
- inhibition [5]: 23%
- inhibition [2]: 65%
